Data published in ChEMBL document CHEMBL6096675 (J Med Chem, 2025).
pIC50: −log10 of the molar value. The source made the active and inactive calls. The calls are words filed in the database; no cut-off is given here.

Experiments:
[1] = tested on: NCI-H838; test: In vivo anti-tumor activity against human NCI-H838 cells xenografted in SCID mouse assessed as assessed as inhibition of tumor growth at 10 mg/kg, iv measured after 3 weeks relative to control; assay type: functional; details: NCI-H838, 504 h, read-out: TGI
[2] = Drug uptake in tumor of mouse xenografted with human H838 cells at 10 mg/kg, iv single dose measured after 48 hrs by LC-MS/MS analysis; assay type: ADME, organism-based, Neoplasm, NCI-H838; details: read-out: Drug uptake
[3] = Antiproliferative activity against human […] NCI-H1975 cells assessed as inhibition of cell growth measured after 7 days by WST-8 assay; assay type: functional; details: NCI-H1975, 168 h, time 7 day
[4] = Antiproliferative activity against human SMARCA4-deficient NCI-H1944 cells assessed as inhibition of cell growth measured after 7 days by WST-8 assay; assay type: functional; details: NCI-H1944, 168 h, time 7 day
[5] = Drug uptake in tumor of mouse xenografted with human MV4-11 cells at 30 mg/kg, iv single dose measured after 168 hrs by LC-MS/MS analysis; assay type: ADME, organism-based, Neoplasm; details: read-out: Drug uptake
[6] = Plasma concentration in mouse xenografted with human MV4-11 cells at 30 mg/kg, iv single dose measured after 168 hrs by LC-MS/MS analysis; assay type: ADME, organism-based
[7] = Metabolic stability in mouse liver microsomes assessed as half life; assay type: ADME, Microsome
[8] = Toxicity in SCID mouse assessed as toxicity signs at 50 mg/kg, iv twice a week; assay type: organism-based; details: in vivo
[9] = tested on: NCI-H838; test: In vivo anti-tumor activity against SMARCA4-deficient human NCI-H838 cells xenografted in SCID mouse assessed as assessed as inhibition of tumor growth at 10 to 30 mg/kg, iv weekly once; assay type: functional, organism-based; details: dose 10-30 mg/kg
[10] = Drug uptake in tumor of human NCI-H838 cells xenografted SCID mouse model at 10 mg/kg, iv measured after 24 hrs by LC-MS/MS analysis; assay type: ADME, organism-based, Neoplasm; details: read-out: Drug uptake
[11] = tested on: NCI-H838; test: In vivo anti-tumor activity against human NCI-H838 cells xenografted in SCID mouse assessed as assessed as inhibition of tumor growth at 30 mg/kg, iv treated for 3 weeks measured after treatment stop; assay type: functional, organism-based
[12] = Plasma stability in human plasma assessed as half life; assay type: ADME, cell-free
[13] = Half life in rat at 1 mg/kg, iv; assay type: ADME, organism-based; details: in vivo
[14] = target: T1, Cytochrome P450 3A4 (Homo sapiens, UniProt P08684); test: Inhibition of CYP3A4 (unknown origin) using testosterone as substrate; assay type: ADME
T1 sequence (P08684 whole entry): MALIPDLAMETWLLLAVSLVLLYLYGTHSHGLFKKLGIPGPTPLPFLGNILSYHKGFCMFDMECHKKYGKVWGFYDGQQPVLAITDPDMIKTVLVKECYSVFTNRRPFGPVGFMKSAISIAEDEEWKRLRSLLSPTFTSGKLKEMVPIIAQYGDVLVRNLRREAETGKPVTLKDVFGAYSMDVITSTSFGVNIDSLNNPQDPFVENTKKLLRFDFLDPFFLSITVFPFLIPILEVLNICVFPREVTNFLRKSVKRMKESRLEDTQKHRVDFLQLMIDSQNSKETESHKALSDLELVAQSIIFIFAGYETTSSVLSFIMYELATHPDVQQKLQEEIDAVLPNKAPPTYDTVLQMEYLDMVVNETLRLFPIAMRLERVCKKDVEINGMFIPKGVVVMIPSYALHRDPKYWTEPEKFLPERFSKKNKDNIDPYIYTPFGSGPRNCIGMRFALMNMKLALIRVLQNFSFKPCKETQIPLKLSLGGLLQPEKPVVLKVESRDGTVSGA

[15] = Plasma concentration in mouse xenografted with human H838 cells at 10 mg/kg, iv single dose measured after 48 hrs by LC-MS/MS analysis; assay type: ADME, organism-based, NCI-H838
[16] = target: T2, Cytochrome P450 1A2 (Homo sapiens, UniProt P05177); test: Inhibition of CYP1A2 (unknown origin); assay type: ADME
T2 sequence (P05177 whole entry): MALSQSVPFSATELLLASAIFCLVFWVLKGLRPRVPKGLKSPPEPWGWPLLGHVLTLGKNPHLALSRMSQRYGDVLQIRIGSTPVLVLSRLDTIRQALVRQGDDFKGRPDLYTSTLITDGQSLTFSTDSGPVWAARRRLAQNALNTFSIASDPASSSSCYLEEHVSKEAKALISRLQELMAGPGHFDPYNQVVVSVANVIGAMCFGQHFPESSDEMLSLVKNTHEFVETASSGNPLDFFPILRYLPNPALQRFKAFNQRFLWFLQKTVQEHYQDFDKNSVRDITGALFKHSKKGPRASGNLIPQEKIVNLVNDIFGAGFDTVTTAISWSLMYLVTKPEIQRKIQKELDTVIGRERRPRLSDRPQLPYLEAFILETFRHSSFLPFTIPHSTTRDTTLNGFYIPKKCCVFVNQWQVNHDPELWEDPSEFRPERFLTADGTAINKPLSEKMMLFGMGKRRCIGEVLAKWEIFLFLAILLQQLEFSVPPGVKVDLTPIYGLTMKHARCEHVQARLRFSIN

[17] = target: T1, Cytochrome P450 3A4; test: Inhibition of CYP3A4 (unknown origin) using midazolam as substrate; assay type: ADME
[18] = Cmax in rat at 1 mg/kg, iv; assay type: ADME, organism-based; details: in vivo
[19] = Drug uptake in tumor of mouse xenografted with human MV4-11 cells at 30 mg/kg, iv single dose measured after 96 hrs by LC-MS/MS analysis; assay type: ADME, organism-based, Neoplasm; details: read-out: Drug uptake
[20] = Antiproliferative activity against human SMARCA4-deficient NCI-H838 cells assessed as inhibition of cell growth measured after 7 days by WST-8 assay; assay type: functional; details: NCI-H838, 168 h, time 7 day
[21] = Drug uptake in tumor of mouse xenografted with human MV4-11 cells at 30 mg/kg, iv single dose measured after 24 hrs by LC-MS/MS analysis; assay type: ADME, organism-based, Neoplasm; details: read-out: Drug uptake
[22] = Metabolic stability in rat liver microsomes assessed as half life; assay type: ADME, Microsome
[23] = tested on: SK-MEL-28; test: Antiproliferative activity against human SMARCA4-wild type SK-MEL-28 cells assessed as inhibition of cell growth measured after 7 days by WST-8 assay; assay type: functional; details: SK-MEL-28, 168 h, time 7 day
[24] = Toxicity in SCID mouse xenografted with human H838 cells assessed as body weight loss at 30 mg/kg, iv measured after 3 weeks; assay type: organism-based; details: in vivo, 504 h
[25] = Drug uptake in tumor of human NCI-H838 cells xenografted SCID mouse model at 10 mg/kg, iv measured after 48 hrs by LC-MS/MS analysis; assay type: ADME, organism-based, Neoplasm; details: read-out: Drug uptake
[26] = Clearance in mouse at 1 mg/kg, iv; assay type: ADME, organism-based; details: in vivo
[27] = Metabolic stability in human liver microsomes assessed as half life; assay type: ADME, Microsome
[28] = Clearance in rat at 1 mg/kg, iv; assay type: ADME, organism-based; details: in vivo
[29] = Antiproliferative activity against human SMARCA4-deficient NCI-H838 cells assessed as maximal inhibition of cell growth measured after 7 days by WST-8 assay relative to control; assay type: functional; details: time 7 day
[30] = Antiproliferative activity against human SMARCA4-deficient NCI-H1693 cells assessed as maximal inhibition of cell growth measured after 7 days by WST-8 assay relative to control; assay type: functional; details: time 7 day
[31] = Drug uptake in tumor of human NCI-H838 cells xenografted SCID mouse model at 10 mg/kg, iv measured after 96 hrs by LC-MS/MS analysis; assay type: ADME, organism-based, Neoplasm; details: read-out: Drug uptake
[32] = Half life in mouse at 1 mg/kg, iv; assay type: ADME, organism-based; details: in vivo
[33] = Toxicity in SCID mouse assessed as body weight loss at 50 mg/kg, iv twice a week; assay type: organism-based; details: in vivo
[34] = Toxicity in SCID mouse xenografted with human H838 cells assessed as toxicity signs at 30 mg/kg, iv measured after 3 weeks; assay type: organism-based; details: in vivo, 504 h
[35] = Plasma concentration in mouse xenografted with human MV4-11 cells at 30 mg/kg, iv single dose measured after 24 hrs by LC-MS/MS analysis; assay type: ADME, organism-based
[36] = tested on: SK-MEL-5; test: Antiproliferative activity against human SMARCA4-deficient SK-MEL-5 cells assessed as inhibition of cell growth measured after 7 days by WST-8 assay; assay type: functional; details: SK-MEL-5, 168 h, time 7 day
[37] = tested on: NCI-H838; test: In vivo anti-tumor activity against human NCI-H838 cells xenografted in SCID mouse assessed as assessed as inhibition of tumor growth at 30 mg/kg, iv measured after 3 weeks relative to control; assay type: functional; details: NCI-H838, 504 h, read-out: TGI

Cc1ncsc1-c1ccc([C@H](CN2CCOCC2)NC(=O)[C@@H]2C[C@@H](O)CN2C(=O)[C@@H](n2cc([C@H]3CC[C@H](CN4CCC(c5ccc6c(c5)-n5c(nc(=O)c7c(Cl)cccc75)C65CCCCC5)CC4)CC3)nn2)C(C)(C)C)cc1
inhibition in vivo at 10 mg/kg [1]: 87%
concentration at 48 h [2]: 437 ng/mL
GI50 [3]: > 10000 nM
GI50 [4]: 9.8 nM
concentration at 168 h [5]: 932 ng/mL
concentration at 168 h [6]: 19 ng/mL
half-life [7]: > 1 h
Activity [8]: Non-toxic
Activity [9]: Active
concentration at 24 h [10]: 400 ng/mL
Activity [11]: inactive
half-life [12]: > 2 h
half-life [13]: 6.3 h
pIC50 [14]: < 4.00
concentration at 48 h [15]: 15 ng/mL
pIC50 [16]: < 4.00
pIC50 [17]: < 4.00
Cmax [18]: 2420 ng/mL
concentration at 96 h [19]: 1640 ng/mL
GI50 [20]: 9.5 nM
concentration at 24 h [21]: 2290 ng/mL
half-life [22]: > 1 h
GI50 [23]: > 10000 nM
Activity [24]: Non-toxic
concentration at 48 h [25]: 437 ng/mL
clearance [26]: 9.2 mL/min/kg
half-life [27]: > 1 h
clearance [28]: 22 mL/min/kg
Imax [29]: 80%
Imax [30]: 85%
concentration at 96 h [31]: 268 ng/mL
half-life [32]: 8.4 h
Activity [33]: Non-toxic
Activity [34]: Non-toxic
concentration at 24 h [35]: 139 ng/mL
GI50 [36]: 1.5 nM
inhibition in vivo at 30 mg/kg [37]: 91%
